{"source": "patent US20210261528A1", "about": "“SALTS OF (S)-(5-CYCLOBUTOXY-2-METHYL-6-(1-(PIPERIDIN-4-YL)-1H-PYRAZOL-4-YL)-3,4-DIHYDROQUINOLIN-1(2H)-YL)(CYCLOPROPYL)METHANONE AND SOLID FORMS THEREOF” (FORMA Therapeutics, Inc., priority 2018, published 2021)", "type_in_all_cases": "physicochemical", "key": {"[1]": {"experiment": "Chemical stability by HPLC-UV at 275 nm and 254 nm (Table 9)", "experimental": "High Pressure Liquid Chromatography (HPLC) data were obtained according to Tables 6 or 7, below:\nA standard stock was dissolved with diluent in a volumetric flask (e.g., 25 mg in 25 mL). This stock was vortexed and sonicated 10 sec to dissolve, and then diluted 1:10, 1:4, and 1:2 either in volumetric flasks or in HPLC vials to generate a standard curve. […] Where appropriate, a blank was created to accurately replicate the matrix of the analytical sample, and peaks appearing in the blank were identified before integration and quantification using Chemstation software.\nThe chemical stability of Succinate Form A was determined using HPLC-UV at 275 nm and 254 nm.\nThe chemical stability of Form G was determined using HPLC-UV at 275 nm and 254 nm."}, "[2]": {"experiment": "Hygroscopicity evaluation by Dynamic Vapor Sorption (DVS) with XRPD of the solids after DVS", "conditions": "for behaviour at high humidity (DVS): >60% RH; for behaviour at high humidity (DVS) / hygroscopicity (DVS): 25° C.; for solid form after the DVS test: XRPD of solids after DVS; for hygroscopicity (DVS): absorption up to 80% RH", "experimental": "Dynamic Vapor Sorption (DVS) was obtained using a Surface Measurement Systems (SMS) DVS Intrinsic. The relative humidity at 25° C. were calibrated against deliquescence point of LiCl, Mg (NO3)2 and KCl."}, "[3]": {"experiment": "Slurry turnover of Compound 2 Form B, Form I and Form G (Example 11, Table 25)", "conditions": "24 hours", "experimental": "To further study the form identity of Form B and Form I, slurry turnover experiments were performed in two solvents with the addition of Form G. Form B was dissolved in IPAc and MTBE respectively to get saturated solutions. Similar mass of Form B, G and I were weighed into a 2-mL vial, upon which the corresponding saturated solution was added to give the slurry, which was stirred at RT or 50° C. After slurry for 24 hours, the solids obtained were analyzed by XRPD."}, "[4]": {"experiment": "Slurry competition between Compound 2 Form G and Form O for stability evaluation (Example 10, Table 24)", "conditions": "24 hours", "experimental": "The slurry competition experiments between the two anhydrates, Form G and Form O, were performed in two solvents, IPAc and MTBE, at RT and 50° C. for stability evaluation. Form O was dissolved in IPAc and MTBE respectively to get saturated solutions. Then, similar masses of Form G and Form O were added into a 2-mL vial, upon which the corresponding saturated solution was added to give the slurry, which was stirred at RT or 50° C. for 24 hours. The solids collected were analyzed by XRPD to confirm the form change."}, "[5]": {"experiment": "Critical aw between Compound 2 Form G and Form I, slurry turnover in H2O/IPAc (Example 12, Table 26)", "conditions": "for Final Form: 24 hrs", "experimental": "To investigate the critical aw between hydrated Form I and the stable anhydrate, Form G, slurry turnover of Form I and Form G was conducted in a co-solvent system (H2O/IPAc) with different aw at RT and 50° C. Similar mass of Form G and Form I were added into a 2-mL vial, followed by adding solvent and stirring at RT or 50° C. for 24 hrs. The solids obtained were analyzed by XRPD to confirm the form change."}, "[6]": {"experiment": "Aqueous solubility estimation of Compound 2 Form G, Form O and Form I at RT (Example 13, Table 27)", "conditions": "for Observation Initial / Observation 2 hrs: about 3 mg in 50 μL water; for Observation 2 hrs: stirred 2 hrs", "experimental": "Aqueous solubility tests at RT were conducted on the two potential anhydrates, Form G and O, and the hydrated Form I. About 3 mg of each form was weighed into a 2-mL vial. […] of water was added and stirred thoroughly at RT with the speed of 800 RPM."}}, "note": "“And” between values parts separate entries of the source, which are not always exact repeats. Identical values can stand only once. “Also recorded” adds a separate entry of the source.", "data": [{"smiles": "C[C@H]1CCc2c(ccc(-c3cnn(C4CCNCC4)c3)c2OC2CCC2)N1C(=O)C1CC1.O=C(O)CCC(=O)O", "note": "[A]", "values": [{"measurement": "% Claim (275 nm)", "setting": "[1]; 25° C./60% RH", "result": "98.3% and 99.8%"}, {"measurement": "% Purity (275 nm)", "setting": "[1]; 25° C./60% RH", "result": "98.64% and 98.78%"}, {"measurement": "% Claim (275 nm)", "setting": "[1]; initial", "result": 95.2, "unit": "%"}, {"measurement": "% Purity (275 nm)", "setting": "[1]; initial", "result": 98.73, "unit": "%"}]}, {"smiles": "C[C@H]1CCc2c(ccc(-c3cnn(C4CCNCC4)c3)c2OC2CCC2)N1C(=O)C1CC1.O=C(O)CCCCC(=O)O", "note": "[Adipate Form A]", "values": [{"measurement": "behaviour at high humidity (DVS)", "setting": "[2]", "result": "deliquescent"}, {"measurement": "solid form after the DVS test", "setting": "[2]", "result": "amorphous or jelly solids"}]}, {"smiles": "C[C@H]1CCc2c(ccc(-c3cnn(C4CCNCC4)c3)c2OC2CCC2)N1C(=O)C1CC1.O=C(O)CCC(=O)O", "note": "[Form B, (S)-(5-cyclobutoxy-2-methyl-6-(1-(piperidin-4-yl)-1H-pyrazol-4-yl)-3,4-dihydroquinolin-1(2H)-yl)(cyclopropyl)methanone succinate]", "values": [{"measurement": "solid form after the DVS test", "setting": "[2]; succinate", "result": "amorphous"}, {"measurement": "hygroscopicity (DVS)", "setting": "[2]; succinate", "result": "highly hygroscopic; also recorded: high hygroscopicity"}]}, {"smiles": "C[C@H]1CCc2c(ccc(-c3cnn(C4CCNCC4)c3)c2OC2CCC2)N1C(=O)C1CC1.O=C(O)CCC(=O)O", "note": "[Form B, G and I]", "values": [{"measurement": "Results (solid form after slurry turnover, XRPD)", "setting": "[3]; IPAc, 50° C.", "result": "Form G"}, {"measurement": "Results (solid form after slurry turnover, XRPD)", "setting": "[3]; IPAc, RT", "result": "Form G"}, {"measurement": "Results (solid form after slurry turnover, XRPD)", "setting": "[3]; MTBE, 50° C.", "result": "Form G"}, {"measurement": "Results (solid form after slurry turnover, XRPD)", "setting": "[3]; MTBE, RT", "result": "Form G"}]}, {"smiles": "C[C@H]1CCc2c(ccc(-c3cnn(C4CCNCC4)c3)c2OC2CCC2)N1C(=O)C1CC1.O=C(O)CCC(=O)O", "note": "[Form G and Form O]", "values": [{"measurement": "Results (solid form after slurry competition, XRPD)", "setting": "[4]; IPAc, 50° C.", "result": "Form G"}, {"measurement": "Results (solid form after slurry competition, XRPD)", "setting": "[4]; IPAc, RT", "result": "Form G"}, {"measurement": "Results (solid form after slurry competition, XRPD)", "setting": "[4]; MTBE, 50° C.", "result": "Form G"}, {"measurement": "Results (solid form after slurry competition, XRPD)", "setting": "[4]; MTBE, RT", "result": "Form G"}]}, {"smiles": "C[C@H]1CCc2c(ccc(-c3cnn(C4CCNCC4)c3)c2OC2CCC2)N1C(=O)C1CC1.O=C(O)CCC(=O)O", "note": "[Form I and Form G]", "values": [{"measurement": "Final Form", "setting": "[5]; H2O/IPAc (2.8:997.2, aw 0.18), 50° C.", "result": "Form G"}, {"measurement": "Final Form", "setting": "[5]; H2O/IPAc (2.8:997.2, aw 0.20), RT", "result": "Form G"}, {"measurement": "Final Form", "setting": "[5]; H2O/IPAc (6:994, aw 0.36), 50° C.", "result": "Form G"}, {"measurement": "Final Form", "setting": "[5]; H2O/IPAc (6:994, aw 0.40), RT", "result": "Form G"}, {"measurement": "Final Form", "setting": "[5]; H2O/IPAc (10:990, aw 0.55), 50° C.", "result": "Form G"}, {"measurement": "Final Form", "setting": "[5]; H2O/IPAc (10:990, aw 0.59), RT", "result": "Form G"}, {"measurement": "Final Form", "setting": "[5]; IPAc, 50° C.", "result": "Form G"}, {"measurement": "Final Form", "setting": "[5]; IPAc, RT", "result": "Form G"}]}, {"smiles": "C[C@H]1CCc2c(ccc(-c3cnn(C4CCNCC4)c3)c2OC2CCC2)N1C(=O)C1CC1.O=C(O)CCC(=O)O", "note": "[Form I, (S)-(5-cyclobutoxy-2-methyl-6-(1-(piperidin-4-yl)-1H-pyrazol-4-yl)-3,4-dihydroquinolin-1(2H)-yl)(cyclopropyl)methanone succinate]", "values": [{"measurement": "solid form after the DVS test", "setting": "[2]; succinate", "result": "amorphous"}, {"measurement": "hygroscopicity (DVS)", "setting": "[2]; succinate", "result": "high hygroscopicity"}, {"measurement": "weight change before 60% RH (DVS)", "setting": "[2]; before 60% RH", "result": "minor weight change"}, {"measurement": "Observation Initial", "setting": "[6]", "result": "Little solid"}, {"measurement": "Observation 2 hrs", "setting": "[6]", "result": "Clear"}, {"measurement": "stability under ambient conditions compared to Form G", "setting": "[5]; different aw", "result": "did not appear to have any stability"}]}, {"smiles": "C[C@H]1CCc2c(ccc(-c3cnn(C4CCNCC4)c3)c2OC2CCC2)N1C(=O)C1CC1.O=C(O)CCC(=O)O", "note": "[Form M, (S)-(5-cyclobutoxy-2-methyl-6-(1-(piperidin-4-yl)-1H-pyrazol-4-yl)-3,4-dihydroquinolin-1(2H)-yl)(cyclopropyl)methanone succinate]", "values": [{"measurement": "solid form after the DVS test", "setting": "[2]; succinate", "result": "amorphous"}, {"measurement": "hygroscopicity (DVS)", "setting": "[2]; succinate", "result": "highly hygroscopic; also recorded: high hygroscopicity"}]}, {"smiles": "C[C@H]1CCc2c(ccc(-c3cnn(C4CCNCC4)c3)c2OC2CCC2)N1C(=O)C1CC1.O=C(O)CCC(=O)O", "note": "[Form O, (S)-(5-cyclobutoxy-2-methyl-6-(1-(piperidin-4-yl)-1H-pyrazol-4-yl)-3,4-dihydroquinolin-1(2H)-yl)(cyclopropyl)methanone succinate]", "values": [{"measurement": "solid form after the DVS test", "setting": "[2]; succinate", "result": "amorphous"}, {"measurement": "hygroscopicity (DVS)", "setting": "[2]; succinate", "result": "highly hygroscopic; also recorded: high hygroscopicity"}, {"measurement": "Observation Initial", "setting": "[6]", "result": "Little solid"}, {"measurement": "Observation 2 hrs", "setting": "[6]", "result": "Clear"}, {"measurement": "solubility at 2 h", "setting": "[6]; thermodynamic from solid, water, stirring 2 hrs at 800 RPM", "result": "> 60", "unit": "mg/mL"}]}, {"smiles": "C[C@H]1CCc2c(ccc(-c3cnn(C4CCNCC4)c3)c2OC2CCC2)N1C(=O)C1CC1.O=C(O)/C=C/C(=O)O", "note": "[Fumarate Form A]", "values": [{"measurement": "behaviour at high humidity (DVS)", "setting": "[2]", "result": "deliquescent"}, {"measurement": "solid form after the DVS test", "setting": "[2]", "result": "amorphous or jelly solids"}]}, {"smiles": "C[C@H]1CCc2c(ccc(-c3cnn(C4CCNCC4)c3)c2OC2CCC2)N1C(=O)C1CC1.O=C(O)/C=C/C(=O)O", "note": "[Fumarate Form B]", "values": [{"measurement": "behaviour at high humidity (DVS)", "setting": "[2]", "result": "deliquescent"}, {"measurement": "solid form after the DVS test", "setting": "[2]", "result": "amorphous or jelly solids"}]}, {"smiles": "C[C@H]1CCc2c(ccc(-c3cnn(C4CCNCC4)c3)c2OC2CCC2)N1C(=O)C1CC1.O=C(O)/C=C/C(=O)O", "note": "[Fumarate Form C]", "values": [{"measurement": "behaviour at high humidity (DVS)", "setting": "[2]", "result": "deliquescent"}, {"measurement": "solid form after the DVS test", "setting": "[2]", "result": "amorphous or jelly solids"}]}, {"smiles": "C[C@H]1CCc2c(ccc(-c3cnn(C4CCNCC4)c3)c2OC2CCC2)N1C(=O)C1CC1.O=C(O)CCC(=O)O", "note": "[G]", "values": [{"measurement": "% Claim (275 nm)", "setting": "[1]; 25° C./60% RH", "result": "104% and 106% and 107% and 103%"}, {"measurement": "% Purity (275 nm)", "setting": "[1]; 25° C./60% RH", "result": "98.84% and 98.86%"}, {"measurement": "% Claim (275 nm)", "setting": "[1]; 40° C./75% RH", "result": "106% and 96.3% and 101%"}, {"measurement": "% Purity (275 nm)", "setting": "[1]; 40° C./75% RH", "result": "98.51% and 98.33% and 97.37% and 96.72%"}, {"measurement": "% Claim (275 nm)", "setting": "[1]; 50° C.", "result": "100% and 101% and 104%"}, {"measurement": "% Purity (275 nm)", "setting": "[1]; 50° C.", "result": "98.69% and 97.37% and 97.79%"}, {"measurement": "% Claim (275 nm)", "setting": "[1]; 50° C.*", "result": 98.1, "unit": "%"}, {"measurement": "% Purity (275 nm)", "setting": "[1]; 50° C.*", "result": 94.24, "unit": "%"}, {"measurement": "% Claim (275 nm)", "setting": "[1]; Post DVS", "result": 73.5, "unit": "%"}, {"measurement": "% Purity (275 nm)", "setting": "[1]; Post DVS", "result": 98.91, "unit": "%"}, {"measurement": "% Claim (275 nm)", "setting": "[1]; RT", "result": "106% and 103% and 107%"}, {"measurement": "% Purity (275 nm)", "setting": "[1]; RT", "result": "98.85% and 98.88% and 98.82% and 98.86%"}, {"measurement": "% Claim (275 nm)", "setting": "[1]; initial", "result": 102, "unit": "%"}, {"measurement": "% Purity (275 nm)", "setting": "[1]; initial", "result": 98.84, "unit": "%"}]}]}
